Source: US20250145580A1, “AN IMPROVED PROCESS FOR THE PREPARATION OF FERRIC MALTOL” (RK Pharma Inc., priority 2021, published 2025)

What was measured:
[1] = Stress Stability study of Polymorphic Form Alpha (PXRD after stress); assay type: physicochemical
[2] = Stress Stability study of Polymorphic Form RK2 (XRPD after stress); assay type: physicochemical

Compound | PXRD ([1]; 75% RH, 15 h) | PXRD ([1]; 90% RH, 15 h) | PXRD ([1]; Drying at 30° C., 3 h) | PXRD ([1]; Drying at 70° C., 3 h) | PXRD ([1]; Drying at 100° C., 3 h) | PXRD ([1]; Grinding, 10 min) | PXRD ([1]; Hexane Slurry) | PXRD ([1]; Pressure study (17 Kg/cm2; 15 min)) | XRPD pattern after subjecting to various stress conditions ([1]; various stress conditions as mentioned in the Table 1) | XRPD ([2]; 50% RH, 12 h) | XRPD ([2]; 75% RH, 12 h) | XRPD ([2]; 90% RH, 12 h) | XRPD ([2]; Drying at 100° C., 3 h) | XRPD ([2]; Drying at 150° C., 3 h) | XRPD ([2]; MTBE Slurry, 12 h) | XRPD ([2]; Micronization study) | XRPD ([2]; Pressure study (Pressure: 17.5 Kg/cm^2)) | XRPD pattern after subjecting to various stress conditions ([2]; various stress conditions as mentioned in the Table 2)
Cc1occc(=O)c1[O-].Cc1occc(=O)c1[O-].Cc1occc(=O)c1[O-].[Fe+3] [Polymorphic Form Alpha, 3-hydroxy-2-methyl-4H-pyrane-4-one iron (III) complex (3:1)] | Form Alpha | Form Alpha | Form Alpha | Form Alpha | Form Alpha | Form Alpha | Form Alpha | Form Alpha | stable | – | – | – | – | – | – | – | – | –
Cc1occc(=O)c1[O-].Cc1occc(=O)c1[O-].Cc1occc(=O)c1[O-].[Fe+3] [Polymorphic Form RK2] | – | – | – | – | – | – | – | – | – | Form RK2 | Form RK2 | Form RK2 | Form RK2 | Form RK2 | Form RK2 | Form RK2 | Form RK2 | stable
